Laboratory results published in patent US6596534B1, “Utilization of osteocalcin promoter to deliver therapeutic genes to tumors” (priority 1997, dated 2003).
“Also recorded” adds a separate entry of the source.

Experiments:
[1] = tested on: ROS 17/2.8 osteosarcoma lung metastases; assay: Treatment of osteosarcoma pulmonary metastasis by intravenous Ad-OC-TK; assay type: in vivo, nude mice
Method: Athymic Balb/c (nu/nu) mice at 5 to 6 weeks were purchased from Harlan Co. (Houston, Tex.). […] All mice were maintained in facilities approved by the American Association of Accreditation of Laboratory Animal Care, and all animal studies were conducted in accordance with the principles and procedures outlined in the NIH Guide for the Care and Use of Laboratory Animals.
The osteosarcoma pulmonary metastasis model was established as described above. Ad-OC-TK (5×10^8 PFU per 50 μl) was injected via tail vein twice, at day 7 and 14, after ROS 17/2.8 injection. Daily acyclovir intra peritoneal administration (40 mg/kg body weight) started at day 6 after ROS 17/2.8 tumor cell inoculation and continued for 15 days. All animals were sacrificed and examined on day 25. The lungs were removed, photographed, and weighed, and the metastatic deposits were observed under a low-powered (20×) stereo microscope. Histomorphologic observations were made in all specimens according to a standard procedure. Student's t-test was employed to analyze the statistical significance of differences among control and treatment groups.
We next tested the therapeutic efficacy of intravenous Ad-OC-TK gene therapy for the treatment of osteosarcoma lung metastases. Twenty mice bearing ROS 17/2.8 tumor lung metastases were treated with either PBS (control), Ad-OC-TK alone, ACV alone, or Ad-OC-TK plus ACV. Animals were sacrificed and analyzed on day 25 after ROS 17/2.8 inoculation. Tumor nodules on the lung surface were counted with stereo-optic magnification and the lung wet weights were measured, and all the lung specimens were subjected to histological analysis.

[2] = tested on: ROS 17/2.8 osteosarcoma lung metastases; assay: Long term survival study of mice bearing osteosarcoma lung metastases; assay type: in vivo, nude mice; settings: generalized Wilcoxon test, 0.005<p<0.01 for combination
Method: The end-points of the long term survival study are: animal death or sacrifice upon request by animal care takers because of excessive tumor burden causing animal distress, lethargy, ruffled fur or weight loss. The survival rate of the animals was analyzed by the Kaplan-Meier survival curve. The statistical significance of this study was analyzed with the generalized Wilcoxon test.^18
Twenty-six mice were inoculated with ROS 17/2.8 tumor cells as described above. Animals received either PBS, Ad-OC-TK alone, ACV alone, or Ad-OC-TK plus ACV and survivals were compared. […] Mean survival time was 27.1±2.9 days for the control animals and 36.6±5.8 days for the Ad-OC-TK plus ACV-treated animals (FIG. 6).
FIG. 6. Survival of animals receiving Ad-OC-TK/ACV treatment. Animals bearing osteosarcoma lung metastases were treated with PBS (6 animals), ACV (6 animals), Ad-OC-TK (6 animals), or Ad-OC-TK/ACV (8 animals) as described above. The survival study end-points were animal death or sacrifice per request by animal care personnel for distress, as evidenced by lethargy, ruffled fur or weight loss.

SMILES: Nc1nc2c(ncn2COCCO)c(=O)[nH]1 [ACV, acyclovir]
- size of pulmonary metastases (histology) ([1]; day 25, compared with PBS-treated specimens): No statistical difference; also recorded: massive pulmonary metastatic tumor nodules
- number of metastatic tumor nodules on the lung surface ([1]; day 25 after ROS 17/2.8 inoculation, Ad-OC-TK 5×10^8 PFU tail vein day 7 and 14, ACV 40 mg/kg i.p. daily for 15 days, p<0.0001 for combination vs PBS): No statistical difference; also recorded: no significant differences
- lung wet weight ([1]; day 25 after ROS 17/2.8 inoculation, same regimen, p=0.0005 for combination vs PBS): no significant differences
- survival compared with controls [2]: No obvious difference in survival
